According to US20260224563A1, “CRYSTALLINE FORMS OF 6-(3-((5-CHLORO-2-METHOXYPYRIDINE)-3-SULFONAMIDO)-2,6-DIFLUOROPHENYL)-N-METHYLIMIDAZO[1,5-A]PYRAZINE-1-CARBOXAMIDE AND METHODS FOR USING THE SAME” (HIBERCELL, INC., priority 2023, published 2026):
Read-outs that look alike come from different tables or passages of the source.

Experiment: Multicenter, open-label, Phase 1a/b study of HC-7366 in subjects with advanced solid tumors (safety, PK)
Assay type: in vivo
Details: for ARAUC: accumulation ratio based on AUC0-τ; for ARAUC / CL/F / Ctrough / DAUC0-last / DAUC0-τ / DCmax / tlast / Cmax / half-life / AUC(0-t) / Vd/F / Tmax: human; for Cmax / half-life / AUC(0-t) / Vd/F / Tmax: plasma, po; for Vd/F: read-out: Vz/F
Description: Identify the maximum tolerated dose (MTD) and/or recommended Phase 2 dose (RP2D) of HC-7366, and evaluate the safety, tolerability, and dose-limiting toxicities (DLTs) of HC-7366 using Form III of the potassium salt of the compound of formula (I) (see Example 6, also referred to within this example as HC-7366-K), in subjects with advanced solid tumors, including: • a. occurrence of DLTs • b. incidence and severity of treatment-emergent adverse events (TEAEs) and treatment related TEAEs according to National Cancer Institute Common Terminology Criteria for Adverse Events (NCI CTCAE) v 5.0 • c. incidence of TEAEs leading to premature discontinuation • d. incidence of laboratory abnormalities, based on NCI CTCAE grades of hematology, serum chemistry, and urinalysis test results • e. incidence of abnormalities observed in 12 lead ECG parameters • f. incidence of abnormalities observed in vital signs measurements
Determine plasma concentration and pharmacokinetic (PK) parameters following treatment with HC-7366 using Form III of the potassium salt of the compound of formula (I) (see Example 6, also referred to within this example as HC-7366-K).
Preliminarily assess the potential antitumor activity of HC-7366 in terms of response rate, disease stabilization, and survival outcomes by assessing: • a. Overall response rate (ORR) to HC-7366 using response evaluation criteria in solid tumors (iRECIST) • b. Duration of response (DOR) to HC-7366 using iRECIST • c. Time to treatment failure (TTF) • d. Progression free survival (PFS) using iRECIST • e. Overall survival (OS)
This is a first in human, multicenter, open label, Phase 1a and 1b dose-escalation and dose-expansion study to establish the maximum tolerated dose, recommended Phase 2 dose, and evaluate the safety and tolerability of QD oral dosing of HC 7366 in a dose escalating fashion in subjects with advanced solid tumors. Up to 40 subjects were enrolled into the Phase 1a dose-escalation part of the study. The study was conducted in the United States at approximately 7 to 10 sites.
Every effort was made to ensure approximately 50% of all subjects enrolled into Phase 1a of this study are subjects with the tumors of special interest including squamous cell carcinoma of the head and neck, colorectal cancer, non-small cell lung cancer, and transitional cell carcinoma of the bladder. […] All subjects in Phase 1b enrolled with clear cell renal cell carcinoma. The Phase 1a study followed a traditional 3+3 design. The starting dose level was 10 mg QD, escalating to 20, 40, 75, 125, and 150 mg QD as safety allows. All doses were administered in the fasting state with water at least 1 hour before food or at least 2 hours after food.
The Phase 1b dose-expansion was at a single dose level of 75 mg based on the safety, tolerability, PK/PD results from Phase 1a to obtain additional safety and preliminary efficacy information. Up to 30 subjects were enrolled in the Phase 1b portion of the study at the 75 mg dose. Replacement patients were enrolled as necessary. Subjects were dosed until unacceptable toxicity, disease progression per immune-related Response Evaluation Criteria in Solid Tumors, discontinuation of treatment for other protocol allowed reason (eg, subject refusal), any other administrative reasons, or after 2 years of treatment, whichever occurs first.
For scheduling purposes, dosing in Phase 1a and 1b occurred in 3 week cycles and computed tomography scans were conducted once every 6 weeks from Cycle 1/Day 1, with the first postbaseline scan after 6 weeks of dosing (precycle 3) until confirmed disease progression, death, start of new anticancer therapy, withdrawal of consent, or end of study, whichever occurs first.
Subjects of Phase 1a and 1b spent Cycle 1/Day 1 (C1D1) in the clinic followed by an optional overnight stay for safety monitoring and PK sampling. Subjects were hospitalized (optional) for administration of the first 2 doses: C1D1 and Cycle 1/Day 2 (C1D2). […]

[1] = multiple once daily oral 10 mg (N = 3), Cycle 1 Day 21, geometric mean
[2] = multiple once daily oral 20 mg (N = 3), Cycle 1 Day 21, geometric mean
[3] = multiple once daily oral 40 mg (N = 8), Cycle 1 Day 21, geometric mean
[4] = multiple once daily oral 75 mg (N = 7), Cycle 1 Day 21, geometric mean
[5] = multiple once daily oral 125 mg (N = 1), Cycle 1 Day 21
[6] = human subjects, multiple once daily oral administration, 10 mg
[7] = human subjects, multiple once daily oral administration, 20 mg
[8] = human subjects, multiple once daily oral administration, 40 mg
[9] = human subjects, multiple once daily oral administration, 75 mg
[10] = human subjects, multiple once daily oral administration, 125 mg (N=1)
[11] = 10 mg, multiple once daily oral 10 mg (N = 3), Cycle 1 Day 21, geometric mean
[12] = 10 mg, single oral dose 10 mg (N = 3), Cycle 1 Day 1, geometric mean
[13] = 20 mg, multiple once daily oral 20 mg (N = 3), Cycle 1 Day 21, geometric mean
[14] = 20 mg, single oral dose 20 mg (N = 3), Cycle 1 Day 1, geometric mean
[15] = 40 mg, multiple once daily oral 40 mg (N = 8), Cycle 1 Day 21, geometric mean
[16] = 40 mg, single oral dose 40 mg (N = 11), Cycle 1 Day 1, geometric mean

CNC(=O)c1ncn2cc(-c3c(F)ccc(NS(=O)(=O)c4cc(Cl)cnc4OC)c3F)ncc12 [HC-7366, 6-(3-((5-chloro-2-methoxypyridine)-3-sulfonamido)-2,6-difluorophenyl)-N-methylimidazo[1,5-a]pyrazine-1-carboxamide]
ARAUC [1]: 1.45 | ARAUC [2]: 1.46 | ARAUC [3]: 1.89 | ARAUC [4]: 1.77 | ARAUC [5]: 1.13 | dose proportionality of exposure (geometric mean Cmax and AUC) (human subjects, 10 to 75 mg, single dose and multiple once daily dosing): increased approximately proportional to increases in dose | time by which exposure appeared to be at steady-state (human subjects, continuous once daily dosing, trough concentrations): Cycle 1 Day 8 to Day 15 | dose proportionality of exposure (human subjects, increase from 75 to 125 mg, single dose administration): slightly greater than dose proportional | geometric mean accumulation ratio (ARAUC) [6]: 1.45 | geometric mean linearity ratio (LR) [6]: 1.11 | geometric mean accumulation ratio (ARAUC) [7]: 1.46 | geometric mean linearity ratio (LR) [7]: 1.14 | geometric mean accumulation ratio (ARAUC) [8]: 1.89 | geometric mean linearity ratio (LR) [8]: 1.11 | geometric mean accumulation ratio (ARAUC) [9]: 1.77 | geometric mean linearity ratio (LR) [9]: 1.22 | accumulation ratio (ARAUC) [10]: 1.13 | linearity ratio (LR) [10]: 0.759 | CL/F [1]: 0.457 L/h | Ctrough [1]: 517 ng/mL | DAUC0-last [1]: 1700 ng·h/mL/mg | DAUC0-τ [1]: 2190 ng·h/mL/mg | DCmax [1]: 198 ng/mL/mg | tlast (multiple once daily oral 10 mg (N = 3), Cycle 1 Day 21, median): 12.00 h | CL/F [2]: 0.478 L/h | Ctrough [2]: 674 ng/mL | DAUC0-last [2]: 2090 ng·h/mL/mg | DAUC0-τ [2]: 2090 ng·h/mL/mg | DCmax [2]: 185 ng/mL/mg | tlast (multiple once daily oral 20 mg (N = 3), Cycle 1 Day 21, median): 24.00 h | CL/F [3]: 0.403 L/h | Ctrough [3]: 2360 ng/mL | DAUC0-last [3]: 2380 ng·h/mL/mg | DAUC0-τ [3]: 2480 ng·h/mL/mg | DCmax [3]: 184 ng/mL/mg | tlast (multiple once daily oral 40 mg (N = 8), Cycle 1 Day 21, median): 24.00 h | CL/F [4]: 0.402 L/h | Ctrough [4]: 5010 ng/mL | DAUC0-last [4]: 2210 ng·h/mL/mg | DAUC0-τ [4]: 2490 ng·h/mL/mg | DCmax [4]: 190 ng/mL/mg | tlast (multiple once daily oral 75 mg (N = 7), Cycle 1 Day 21, median): 24.00 h | CL/F [5]: 0.311 L/h | Ctrough [5]: 3780 ng/mL | DAUC0-last [5]: 2080 ng·h/mL/mg | DAUC0-τ [5]: 3210 ng·h/mL/mg | DCmax [5]: 306 ng/mL/mg | Cmax [11]: 1980 ng/mL | half-life [11]: 9.94 h | AUC(0-t) (10 mg, multiple once daily oral 10 mg (N = 3), Cycle 1 Day 21, geometric mean, read-out: AUC0-last): 17000 ng·h/mL | Vd/F [11]: 6.55 L | Tmax (10 mg, multiple once daily oral 10 mg (N = 3), Cycle 1 Day 21, median): 2 h | Cmax [12]: 1450 ng/mL | half-life [12]: 11.3 h | AUC(0-t) (10 mg, single oral dose 10 mg (N = 3), Cycle 1 Day 1, geometric mean, read-out: AUC0-24): 15100 ng·h/mL | AUC(0-t) (10 mg, single oral dose 10 mg (N = 3), Cycle 1 Day 1, geometric mean, read-out: AUC0-last): 15100 ng·h/mL | Vd/F [12]: 8.26 L | Tmax (10 mg, single oral dose 10 mg (N = 3), Cycle 1 Day 1, median): 2 h | Cmax [13]: 3710 ng/mL | half-life [13]: 12.2 h | AUC(0-t) (20 mg, multiple once daily oral 20 mg (N = 3), Cycle 1 Day 21, geometric mean, read-out: AUC0-last): 41900 ng·h/mL | Vd/F [13]: 8.4 L | Tmax (20 mg, multiple once daily oral 20 mg (N = 3), Cycle 1 Day 21, median): 2 h | Cmax [14]: 2330 ng/mL | half-life [14]: 9.99 h | AUC(0-t) (20 mg, single oral dose 20 mg (N = 3), Cycle 1 Day 1, geometric mean, read-out: AUC0-24): 28700 ng·h/mL | AUC(0-t) (20 mg, single oral dose 20 mg (N = 3), Cycle 1 Day 1, geometric mean, read-out: AUC0-last): 28700 ng·h/mL | Vd/F [14]: 7.84 L | Tmax (20 mg, single oral dose 20 mg (N = 3), Cycle 1 Day 1, median): 4 h | Cmax [15]: 7360 ng/mL | half-life [15]: 12.4 h | AUC(0-t) (40 mg, multiple once daily oral 40 mg (N = 8), Cycle 1 Day 21, geometric mean, read-out: AUC0-last): 95000 ng·h/mL | Vd/F [15]: 8.31 L | Tmax (40 mg, multiple once daily oral 40 mg (N = 8), Cycle 1 Day 21, median): 2 h | Cmax [16]: 4520 ng/mL | half-life [16]: 14.8 h
